Source: patent US9605241B2, “Induction and stabilization of enzymatic activity in microorganisms” (Georgia State University Research Foundation, Inc., priority 2006, dated 2017)

Key:
asparaginase I [1] = assay: Asparaginase I production on supplemented medium; type: cell-based; conditions: asparagine and glutamine added 3.8 mM
Protocol: The induction of asparaginase I production in various nitrile hydratase producing microorganisms was evaluated. All strains were grown on YEMEA medium containing 7.5 g/L of urea and 10 ppm cobalt (provided as cobalt chloride) supplemented with asparagine (ASN), glutamine (GLN), or both asparagine and glutamine. The asparagine and glutamine were added 3.8 mM. As a comparative, enzyme production was also evaluated with supplementation was with acrylonitrile (AN), acrylamide (AMD) or acrylonitrile and acrylamide. Growth temperature was in the range of 26° C. to 30° C.

asparaginase I [2] = assay: Effect of inducer and media composition on asparaginase I; type: cell-based; conditions: Rhodococcus sp. DAP 96253; inducer 1000 ppm
Protocol: Testing was performed to evaluate the effect on asparaginase I activity based upon the inducer used. In particular, testing was performed using asparagine, glutamine, succinonitrile, and isovaleronitrile as inducers (all added at 1000 ppm each).

nitrile hydratase = assay: Nitrile hydratase induction by inducers (Example 1); type: cell-based, Rhodococcus sp., strain DAP 96253; conditions: Table 1 comparison
Protocol: The induction of nitrile hydratase activity and amidase activity in Rhodococcus sp., strain DAP 96253, was evaluated using multiple types of inducers (1000 ppm). Three different samples were cultured in YEMEA medium containing 10 ppm cobalt and 7.5 g/L urea and supplemented with acrylonitrile, asparagine, or glutamine. The specific nitrile hydratase activity and the specific amidase activity in each sample was evaluated, and the results are provided below in Table 1, with activities provided in units/mg cdw (cell dry weight). One unit of nitrile hydratase activity relates to the ability to convert 1 Arnol of acrylonitrile to its corresponding amide per minute, per milligram of cells (dry weight) at a of pH 7.0 and a temperature of 30° C. One unit of amidase activity relates to the ability to convert […] of acrylamide to its corresponding acid per minute, per milligram of cells (dry weight) pH of 7.0 and a temperature of 30° C.

SMILES: C=CC#N [Acrylonitrile, acrylonitrile]
- Asparaginase I Level Based on Growth Medium Supplementation (asparaginase I [1]; Pseudomonas chloroaphis ATCC 13985, 26 °C): 2 Units/mg cdw
- Asparaginase I Level Based on Growth Medium Supplementation (asparaginase I [1]; Rhodococcus rhodochrous DAP 96622 ATCC 55898, 26 °C): 8.2 Units/mg cdw
- Asparaginase I Level Based on Growth Medium Supplementation (asparaginase I [1]; Rhodococcus sp. DAP 96253 ATCC 55899, 30 °C): 7.8 Units/mg cdw

SMILES: N#CCCC#N [Succinonitrile, succinonitrile]
- ability to induce asparaginase I activity (in words) (asparaginase I [2]): showed an ability to induce asparaginase I activity

SMILES: NC(=O)CC[C@H](N)C(=O)O [Glutamine, glutamine]
- ability to induce asparaginase I activity (in words) (asparaginase I [2]): showed an ability to induce asparaginase I activity
- ability to induce nitrile hydratase activity compared with acrylonitrile (nitrile hydratase): exceeds the ability of acrylonitrile to induce such activity
- Asparaginase I Level Based on Growth Medium Supplementation (asparaginase I [1]; Pseudomonas chloroaphis ATCC 43051, 30 °C): No

SMILES: NC(=O)C[C@H](N)C(=O)O [Asparagine, asparagine]
- ability to induce nitrile hydratase activity compared with acrylonitrile (nitrile hydratase): exceeds the ability of acrylonitrile to induce such activity
